These results are taken from paper PMC4310727 (Journal of enzyme inhibition and medicinal chemistry, 2012).

The assay addresses T1, Glutaredoxin-1 (GRX-1) (Homo sapiens, UniProt P35754).
T1 sequence (P35754 2-106): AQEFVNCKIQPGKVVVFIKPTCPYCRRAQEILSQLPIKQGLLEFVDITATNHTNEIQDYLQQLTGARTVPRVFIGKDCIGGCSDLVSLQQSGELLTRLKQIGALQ
Put plainly: time-dependent inactivation kinetics. Format: biochemical. The note with it: read-out: Ki.

The structures appear in SMILES notation.

In the case of `CC(=O)N[C@@H](CSC(=S)Nc1ccc(NC(=S)SC[C@H](NC(C)=O)C(=O)O)cc1)C(=O)O` [2-AAPA, 2-acetylamino-3-[4-(2-acetylamino-2-carboxyethyl-sulfanylthiocarbonylamino)phenylthiocarbamoylsulfanyl]propionic acid], the KI (inactivation) amounted to 91.3 µM.
